Publication PMC2610419 (Chemical biology & drug design, 2006)
Where a chain is given by its changes, count along the chain named. “Also recorded” adds a separate entry of the source. Square brackets hold non-standard residues; d marks the D form. Ends that are not written are not given here. pS = N[C@@H](COP(=O)(O)O)C(=O)O

Tests used:
Design in all cases: species or system murine
Abl SH2 domain Arg45Gln = molecular target: T1, Abl SH2 domain Arg45Gln (Mus musculus, UniProt P00520, R161Q); test: HSQC NMR titration ligand-binding assay, Arg45Gln mutant; details: read-out: Affinity in high salt, 135 mM KCl
T1 sequence (P00520 120-220 R161Q): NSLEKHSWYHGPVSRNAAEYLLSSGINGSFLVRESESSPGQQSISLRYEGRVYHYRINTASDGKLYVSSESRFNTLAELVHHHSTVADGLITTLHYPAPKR

Abl SH2 domain Arg59Gln = molecular target: T2, Abl SH2 domain Arg59Gln (Mus musculus, UniProt P00520, R175Q); test: HSQC NMR titration ligand-binding assay, Arg59Gln mutant; details: for Affinity in high salt: 135 mM KCl; for Kd: read-out: Affinity in high salt, 135 mM KCl
T2 sequence (P00520 120-220 R175Q): T1 sequence (P00520 120-220 R161Q) with Q42R, R56Q

Abl SH2 domain Arg36Lys = molecular target: T3, Abl SH2 domain Arg36Lys (Mus musculus, UniProt P00520, R152K); test: HSQC NMR titration ligand-binding assay, Arg36Lys mutant; details: 135 mM KCl
T3 sequence (P00520 120-220 R152K): T1 sequence (P00520 120-220 R161Q) with R33K, Q42R

[1] = molecular target: T4, Abl SH2 domain (wild type) (Mus musculus, UniProt P00520); test: HSQC NMR titration ligand-binding assay, wild type Abl SH2 domain; details: for Affinity in high salt: 135 mM KCl, HSQC titration, ± standard error
T4 sequence (P00520 120-220): T1 sequence (P00520 120-220 R161Q) with Q42R

Compound | Kd (Abl SH2 domain Arg45Gln) [µM] | Affinity in high salt (Abl SH2 domain Arg59Gln) | Kd (Abl SH2 domain Arg59Gln) [µM] | Affinity in high salt (Abl SH2 domain Arg36Lys) | Affinity in high salt [1] | further results
CCCC(=O)OC[C@H](COP(=O)(O)O[C@@H]1[C@H](O)[C@H](O)[C@@H](OP(=O)(O)O)[C@H](OP(=O)(O)O)[C@H]1O)OC(=O)CCC [diC4-PtdIns(4,5)P2, dibutanoyl (C4) PtdIns(4,5)P2] | 900 ± 60 | almost completely disrupted | > 10000 | Not detectable |  | Affinity in high salt (Abl SH2 domain Arg36Lys; listed as PtdIns(4,5)P2): abolished
CCCCCCCC(=O)OC[C@H](COP(=O)(O)O[C@@H]1[C@H](O)[C@H](O)[C@@H](OP(=O)(O)O)[C@H](OP(=O)(O)O)[C@H]1O)OC(=O)CCCCCCC [diC8-PtdIns(4,5)P2, dioctanoyl (C8) PtdIns(4,5)P2] |  |  |  |  |  | stronger affinity of the C8 over C4 form of PtdIns(4,5)P2 ([1]; ratio of affinities): 1.6 fold
phosphatidic acid [Phosphatidicacid] |  |  |  |  | very weak | 
phosphatidylserine |  |  |  |  | Not detectable | Affinity in high salt ([1]; listed as PtdSer): very weak

Second part, led by results:

Kd (Abl SH2 domain Arg45Gln) [µM] | Affinity in high salt (Abl SH2 domain Arg59Gln) | Kd (Abl SH2 domain Arg59Gln) [µM] | Affinity in high salt (Abl SH2 domain Arg36Lys) | Affinity in high salt [1] | Compound | further results
390 ± 13 | reduced to millimolar levels | 2500 ± 200 | abolished; also recorded: Not detectable |  | N[C@@H](Cc1ccc(OP(=O)(O)O)cc1)C(=O)O [pTyr, phosphotyrosine] | 
 |  |  |  | Not detectable | GQSSRV[pS]PSPTTY [BCR pSer354 peptide] | 
